Holding throughout (type): functional
What all share (settings): read-out: ED50 (the source's name)

Assay [1] can be described thus: Cytotoxicity against human MEL1 cells.
The nature of assay [2]: Cytotoxicity against human MEL2 cells.
A short description of assay [3]: Cytotoxicity against human MEL3 cells.
Assay [4] in a line: Cytotoxicity against human MEL7 cells.

Data on two compounds can be found in ChEMBL document CHEMBL1141850, “Glucosidation of betulinic acid by Cunninghamella species” (1999).

≈ marks a conversion by molar mass, not a printed value.

For `C=C(C)[C@@H]1CC[C@]2(C(=O)O[C@@H]3O[C@H](CO)[C@@H](O)[C@H](O)[C@H]3O)CC[C@]3(C)[C@H](CC[C@@H]4[C@@]5(C)CC[C@H](O)C(C)(C)[C@@H]5CC[C@]43C)[C@@H]12`, the EC50 in assay [1], in assay [2], in assay [3] and in assay [4] was more than 20 µg/mL throughout.
Consider `C=C(C)[C@@H]1CC[C@]2(C(=O)O)CC[C@]3(C)[C@H](CC[C@@H]4[C@@]5(C)CC[C@H](O)C(C)(C)[C@@H]5CC[C@]43C)[C@@H]12` [BETULINIC ACID], for which the EC50 in assay [1] is 1.4 µg/mL (≈ 3.07 µM); in assay [2] it was 1.2 µg/mL (≈ 2.63 µM); in assay [3], 1.8 µg/mL (≈ 3.94 µM); in assay [4], 4.4 µg/mL (≈ 9.63 µM).
